Test results reported in patent publication US12065654B2, “Plants having increased tolerance to herbicides” (BASF SE, priority 2014, dated 2024).

Key:
Rhodococcus HPPD1 = assay: HPPD activity assay; type: biochemical; details: HPPD enzyme Rhodococcus HPPD1
Protocol: (§1) The activity assay for HPPD is based on the analysis of homogentisic acid by reversed phase HPLC.
(§2) The assay mixture can contain 150 mM potassium phosphate buffer pH 7.0, 50 mM L-ascorbic acid, 100 μM Catalase (Sigma-Aldrich), 1 μM FeSO4 and 0.2 units of purified HPPD enzyme in a total volume of 505 μl. 1 unit is defined as the amount of enzyme that is required to produce 1 nmol of HGA per minute at 20° C.
(§3) The reaction is allowed to proceed for 45 min at room temperature. The reaction is stopped by the addition of 50 μl of 4.5 M phosphoric acid. The sample is filtered using a […] pore size PVDF filtration device. 5 μl of the cleared sample is analyzed on an UPLC HSS T3 column (particle size 1.8 μm, dimensions 2, 1×50 mm; Waters) by isocratic elution using 90% 20 mM NaH2PO4 pH 2.2, 10% methanol (v/v).
(§4) HGA is detected electrochemically at 750 mV (mode: DC; polarity: positive) and quantified by integrating peak areas (Empower software; Waters).
(§5) Inhibitors are dissolved in DMSO (dimethylsulfoxide) to a concentration of 0.5 mM. From this stock solution serial five-fold dilutions are prepared in DMSO, which are used in the assay. The respective inhibitor solution accounts for 1% of the assay volume. Thus, final inhibitor concentrations range from 5 μM to 320 pM, respectively. Activities are normalized by setting the uninhibited enzyme activity to 100%. IC50 values are calculated using non-linear regression.
(§6) Using methods which are described in the above examples or well known in the art, purified recombinant wild-type HPPD enzymes are characterized with respect to their kinetic properties and sensitivity towards HPPD inhibiting herbicides. Apparent michaelis constants (Km) and maximal reaction velocities (Vmax) are calculated by non-linear regression with the software GraphPad Prism 5 (GraphPad Software, La Jolla, USA) using a substrate inhibition model. […] Weighted means (by standard error) of Km and IC50 values are calculated from at least three independent experiments. The Cheng-Prusoff equation for competitive inhibition (Cheng, Y. C.; Prusoff, W. H. Biochem Pharmacol 1973, 22, 3099-3108) is used to calculate dissociation constants (Ki).
(§7) Field performance of the HPPD enzyme, which is used as a herbicide tolerance trait may depend not only on its lack of sensitivity towards HPPD inhibiting herbicides but also on its activity. To assess the potential performance of a herbicide tolerance trait a tolerance index (TI) is calculated using the following formula: […]
(§8) Easy comparison and ranking of each trait is enabled by normalizing tolerance indexes on Arabidopsis wild-type HPPD.

Picrophilus HPPD = assay: HPPD activity assay; type: biochemical, Picrophilus torridus; details: HPPD enzyme Picrophilus
Protocol: as §1, §2, §3, §4, §5, §6, §7, §8

Avena HPPD = assay: HPPD activity assay; type: biochemical, Avena sativa; details: HPPD enzyme Avena
Protocol: as §1, §2, §3, §4, §5, §6, §7, §8

Chlamydomonas HPPD1 = assay: HPPD activity assay; type: biochemical, Chlamydomonas reinhardtii; details: HPPD enzyme Chlamydomonas HPPD1;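 also: reaction started with 4-HPP at 0.05 mM after 30 min preincubation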
Protocol: as §1, §2, §3, §4, §5, §6, §7, §8

HPPD Seq ID 67 ID10 = assay: HPPD activity assay; type: biochemical, Zea mays; details: HPPD enzyme Seq ID 67 ID10;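 also: reaction started with 4-HPP at 0.05 mM after 30 min preincubation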
Protocol: as §1, §2, §3, §4, §5, §6, §7, §8

HPPD Seq ID 69 ID406 = assay: HPPD activity assay; type: biochemical, Zea mays; details: HPPD enzyme Seq ID 69 ID406;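 also: reaction started with 4-HPP at 0.05 mM after 30 min preincubation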
Protocol: as §1, §2, §3, §4, §5, §6, §7, §8

Arabidopsis HPPD F381I = target: T1, Arabidopsis HPPD F381I (Arabidopsis thaliana, UniProt P93836, F381I); type: biochemical; details: Arabidopsis HPPD variant F381I; normalized on wild-type;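 also: reaction started with 4-HPP at 0.05 mM after 30 min preincubation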
T1 construct: His6 (N); made in house; host or cells: E. coli BL21 (DE3)
T1 sequence (P93836 whole entry F381I): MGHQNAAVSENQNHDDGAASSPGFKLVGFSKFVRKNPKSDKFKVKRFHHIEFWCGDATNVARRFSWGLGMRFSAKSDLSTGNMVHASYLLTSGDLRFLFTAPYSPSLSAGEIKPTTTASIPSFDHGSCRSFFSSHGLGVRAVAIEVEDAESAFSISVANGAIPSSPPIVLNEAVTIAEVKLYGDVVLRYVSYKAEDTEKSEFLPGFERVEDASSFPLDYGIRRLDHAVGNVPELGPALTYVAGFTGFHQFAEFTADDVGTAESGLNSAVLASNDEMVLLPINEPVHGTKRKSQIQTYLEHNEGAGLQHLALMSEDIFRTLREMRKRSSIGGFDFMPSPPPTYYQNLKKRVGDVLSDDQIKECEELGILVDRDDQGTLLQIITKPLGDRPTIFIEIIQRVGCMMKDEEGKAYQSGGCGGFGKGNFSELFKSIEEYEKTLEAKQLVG
Protocol: as §1, §2, §3, §4, §5
(§9) Purified, mutant HPPD enzymes are obtained by the methods described above. Dose response and kinetic measurements are carried out using the described HPPD activity assay. Apparent michaelis constants (Km) and maximal reaction velocities (Vmax) are calculated by non-linear regression with the software GraphPad Prism 5 (GraphPad Software, La Jolla, USA) using a substrate inhibition model. […] Weighted means (by standard error) of K. and IC50 values are calculated from at least three independent experiments. The Cheng-Prusoff equation for competitive inhibition (Cheng, Y. C.; Prusoff, W. H. Biochem Pharmacol 1973, 22, 3099-3108) is used to calculate dissociation constants (Ki).
as §7, with “of the optimized HPPD enzyme,” for “of the HPPD enzyme,”
(§10) Easy comparison and ranking of each trait is enabled by normalizing tolerance indexes on the respective wild-type HPPD.

Arabidopsis HPPD F381L = target: T2, Arabidopsis HPPD F381L (Arabidopsis thaliana, UniProt P93836, F381L); type: biochemical; details: Arabidopsis HPPD variant F381L; normalized on wild-type
T2 construct: His6 (N); made in house; host or cells: E. coli BL21 (DE3)
T2 sequence (P93836 whole entry F381L): as the sequence (P93836 whole entry F381I) above, with I381L counted along it
Protocol: as §1, §2, §3, §4, §5, §9
as §7, with “of the optimized HPPD enzyme,” for “of the HPPD enzyme,”
as §10

[1] = target: T3, Arabidopsis HPPD M335H, P336A (Arabidopsis thaliana, UniProt P93836, M335H/P336A); type: biochemical; details: Arabidopsis HPPD variant M335H, normalized on wild-type;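 also: reaction started with 4-HPP at 0.05 mM after 30 min preincubation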
T3 construct: His6 (N); made in house; host or cells: E. coli BL21 (DE3)
T3 sequence (P93836 whole entry M335H/P336A): as the sequence (P93836 whole entry F381I) above, with M335H, P336A, I381F counted along it
Protocol: as §1, §2, §3, §4, §5, §9
as §7, with “of the optimized HPPD enzyme,” for “of the HPPD enzyme,”
as §10

[2] = target: T4, Arabidopsis HPPD M335H, P336A, E363Q (Arabidopsis thaliana, UniProt P93836, E363Q/M335H/P336A); type: biochemical; details: Arabidopsis HPPD variant M335H, normalized on wild-type;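 also: reaction started with 4-HPP at 0.05 mM after 30 min preincubation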
T4 construct: His6 (N); made in house; host or cells: E. coli BL21 (DE3)
T4 sequence (P93836 whole entry M335H/P336A/E363Q): as the sequence (P93836 whole entry F381I) above, with M335H, P336A, E363Q, I381F counted along it
Protocol: as §1, §2, §3, §4, §5, §9
as §7, with “of the optimized HPPD enzyme,” for “of the HPPD enzyme,”
as §10

[3] = target: T5, Arabidopsis HPPD M335H, P336G (Arabidopsis thaliana, UniProt P93836, M335H/P336G); type: biochemical; details: Arabidopsis HPPD variant M335H, normalized on wild-type
T5 construct: His6 (N); made in house; host or cells: E. coli BL21 (DE3)
T5 sequence (P93836 whole entry M335H/P336G): as the sequence (P93836 whole entry F381I) above, with M335H, P336G, I381F counted along it
Protocol: as §1, §2, §3, §4, §5, §9
as §7, with “of the optimized HPPD enzyme,” for “of the HPPD enzyme,”
as §10

[4] = target: T6, Arabidopsis HPPD M335H, P336G, E363Q (Arabidopsis thaliana, UniProt P93836, E363Q/M335H/P336G); type: biochemical; details: Arabidopsis HPPD variant M335H, normalized on wild-type
T6 construct: His6 (N); made in house; host or cells: E. coli BL21 (DE3)
T6 sequence (P93836 whole entry M335H/P336G/E363Q): as the sequence (P93836 whole entry F381I) above, with M335H, P336G, E363Q, I381F counted along it
Protocol: as §1, §2, §3, §4, §5, §9
as §7, with “of the optimized HPPD enzyme,” for “of the HPPD enzyme,”
as §10

Cc1c(C(=O)c2cnn(C)c2O)ccc(S(C)(=O)=O)c1C1=NOCC1 [Inhibitor 1, [3-(4,5-dihydroisoxazol-3-yl)-2-methyl-4-methylsulfonyl-phenyl]-(5-hydroxy-1-methyl-pyrazol-4-yl)methanone]
TI normalized to Arabidopsis HPPD (Rhodococcus HPPD1): 18.9
TI normalized to Arabidopsis HPPD (Picrophilus HPPD): 10.4
TI normalized to Arabidopsis HPPD (Avena HPPD): 1.6
TI normalized to Arabidopsis HPPD (Chlamydomonas HPPD1): 1.7
TI normalized to Arabidopsis HPPD (HPPD Seq ID 67 ID10): 120.8
TI normalized to Arabidopsis HPPD (HPPD Seq ID 69 ID406): 15
Normalized tolerance index (TI) (Arabidopsis HPPD F381I): 10.8
Normalized tolerance index (TI) (Arabidopsis HPPD F381L): 11
Normalized tolerance index (TI) [1]: 3.4
Normalized tolerance index (TI) [2]: 6.4
Normalized tolerance index (TI) [3]: 5
Normalized tolerance index (TI) [4]: 3

CS(=O)(=O)c1ccc(C(=O)C2C(=O)CCCC2=O)c([N+](=O)[O-])c1 [Inhibitor 2, 2-(4-methylsulfonyl-2-nitro-benzoyl)cyclohexane-1,3-dione]
TI normalized to Arabidopsis HPPD (Rhodococcus HPPD1): 0.3
TI normalized to Arabidopsis HPPD (Picrophilus HPPD): 0.2
TI normalized to Arabidopsis HPPD (Avena HPPD): 3
TI normalized to Arabidopsis HPPD (Chlamydomonas HPPD1): 0.1
TI normalized to Arabidopsis HPPD (HPPD Seq ID 67 ID10): 22.9
TI normalized to Arabidopsis HPPD (HPPD Seq ID 69 ID406): 5.6
Normalized tolerance index (TI) (Arabidopsis HPPD F381I): 0.1
Normalized tolerance index (TI) (Arabidopsis HPPD F381L): 0.1
Normalized tolerance index (TI) [1]: 0.1
Normalized tolerance index (TI) [2]: 0.3
Normalized tolerance index (TI) [3]: 0.1
Normalized tolerance index (TI) [4]: 0.1

COCCOCc1nc(C(F)(F)F)ccc1C(=O)C1=C(O)C2CCC(C2)C1=O (stereo not drawn) [Inhibitor 3, 2-hydroxy-3-[2-(2-methoxyethoxymethyl)-6-(trifluoromethyl)pyridine-3-carbonyl]bicyclo[3.2.1]oct-2-en-4-one]
TI normalized to Arabidopsis HPPD (Rhodococcus HPPD1): 1.2
TI normalized to Arabidopsis HPPD (Picrophilus HPPD): 7.8
TI normalized to Arabidopsis HPPD (Avena HPPD): 2.5
TI normalized to Arabidopsis HPPD (Chlamydomonas HPPD1): 0.1
TI normalized to Arabidopsis HPPD (HPPD Seq ID 67 ID10): 20.1
TI normalized to Arabidopsis HPPD (HPPD Seq ID 69 ID406): 9.9
Normalized tolerance index (TI) (Arabidopsis HPPD F381I): 0.1
Normalized tolerance index (TI) (Arabidopsis HPPD F381L): 0.1
Normalized tolerance index (TI) [1]: 0.1
Normalized tolerance index (TI) [2]: 0.5
Normalized tolerance index (TI) [3]: 0.3
Normalized tolerance index (TI) [4]: 0.1

CS(=O)(=O)c1ccc(C(=O)C2C(=O)CCCC2=O)c(Cl)c1COCC(F)(F)F [Inhibitor 4, 2-[2-chloro-4-methylsulfonyl-3-(2,2,2-trifluoroethoxymethyl)benzoyl]cyclohexane-1,3-dione]
TI normalized to Arabidopsis HPPD (Rhodococcus HPPD1): 0.6
TI normalized to Arabidopsis HPPD (Picrophilus HPPD): 0.4
TI normalized to Arabidopsis HPPD (Avena HPPD): 3
TI normalized to Arabidopsis HPPD (Chlamydomonas HPPD1): 0.1
TI normalized to Arabidopsis HPPD (HPPD Seq ID 67 ID10): 26
TI normalized to Arabidopsis HPPD (HPPD Seq ID 69 ID406): 5.5
Normalized tolerance index (TI) (Arabidopsis HPPD F381I): 0.1
Normalized tolerance index (TI) (Arabidopsis HPPD F381L): 0.1
Normalized tolerance index (TI) [1]: 0.1
Normalized tolerance index (TI) [2]: 0.3
Normalized tolerance index (TI) [3]: 0.2
Normalized tolerance index (TI) [4]: 0.1
